According to patent US9085584B2, “Substituted pyrido[3,2-E][1,2,4]-triazolo[4,3-A]pyrazines for the treatment of central nervous system disorders” (Boehringer Ingelheim International GmbH, priority 2012, dated 2015):

Test: Metabolic stability in pooled liver microsomes
Format: in vitro ADME, human
Settings: human liver microsomes, 1 μM test compound, 37° C.
Description: The metabolic stability of the compounds according to the invention has been investigated as follows:
The metabolic degradation of the test compound was assayed at 37° C. with pooled liver microsomes from various species. The final incubation volume of 100 μl per time point contains TRIS buffer pH 7.6 at room temperature (0.1 M), magnesium chloride (5 mM), microsomal protein (1 mg/mL for human and dog, 0.5 mg/mL for other species) and the test compound at a final concentration of 1 μM. Following a short preincubation period at 37° C., the reactions were initiated by addition of betanicotinamide adenine dinucleotide phosphate, reduced form (NADPH, 1 mM), and terminated by transferring an aliquot into solvent after different time points. […] The half-life was determined by the slope of the semi-logarithmic plot of the concentration-time profile.

Row | SMILES | Half-life - t½
1 | Cc1nc2cccnc2n2c(-c3cc(OC4CCOCC4)ccc3Cl)nnc12 [Example 20] | 2.17 h
2 | Cc1ccc2nc(C)c3nnc(-c4cc(OC[C@H](C)O)ccc4Cl)n3c2n1 [Example 34] | 2.17 h
3 | Cc1nc2cccnc2n2c(-c3cc(OC[C@H](C)O)ccc3Cl)nnc12 [Example 18] | 2.17 h
4 | Cc1nc2cccnc2n2c(-c3cc(OC4COCCC4O)ccc3Cl)nnc12 (single isomer, unassigned) [Example 58] | 2.17 h
5 | Cc1ccc2nc(C)c3nnc(-c4cc(C5(O)CCC5)ccc4Cl)n3c2n1 [Example 89] | 2.17 h
6 | Cc1ccc(OCC2(O)CCC2)cc1-c1nnc2c(C)nc3cccnc3n12 [Example 50] | 2.17 h
7 | Cc1nc2cccnc2n2c(-c3cc(C(C)(C)O)ccc3Cl)nnc12 [Example 70] | 2.17 h
8 | Cc1ccc(C2(O)CCOCC2O)cc1-c1nnc2c(C)nc3ccc(C4CC4)nc3n12 (racemic) [Example 104] | 2.17 h
9 | Cc1nc2cccnc2n2c(-c3cc(OC4CCC(F)(F)CC4)ccc3Cl)nnc12 [Example 21] | 2.17 h
10 | Cc1ccc(CCC(C)(C)O)cc1-c1nnc2c(C)nc3cccnc3n12 [Example 67] | 2.17 h
11 | Cc1ccc2nc(C)c3nnc(-c4cc(C(O)C(C)C)ccc4Cl)n3c2n1 (stereo not drawn) [Example 59] | 0.817 h
12 | Cc1ccc2nc(C)c3nnc(-c4cc(C5(O)CCC5)ccc4C)n3c2n1 [Example 102] | 2.17 h
13 | CCC(O)c1ccc(Cl)c(-c2nnc3c(C)nc4ccc(C)nc4n23)c1 (stereo not drawn) [Example 62] | 2.17 h
14 | Cc1nc2cccnc2n2c(-c3cc(CCC(C)(C)O)ccc3Cl)nnc12 [Example 64] | 2.17 h
15 | Cc1nc2ccc(C3CC3)nc2n2c(-c3cc(OC4COCC4O)ccc3Cl)nnc12 (single isomer, unassigned) [Example 58c] | 2.17 h
16 | Cc1nc2cccnc2n2c(-c3cc(OCC4(O)CCC4)ccc3Cl)nnc12 [Example 49] | 2.17 h
17 | Cc1nc2cccnc2n2c(-c3cc(OCC(C)(C)O)ccc3Cl)nnc12 [Example 44] | 2.17 h
18 | Cc1nc2cccnc2n2c(-c3cc(C4(O)CCOCC4)ccc3Cl)nnc12 [Example 93] | 2.17 h
19 | Cc1nc2ccc(C3(C)CC3)nc2n2c(-c3cc(C(C)(C)O)ccc3F)nnc12 [Example 72] | 2.17 h
20 | Cc1ccc2nc(C)c3nnc(-c4cc(O[C@H]5CCOC5)ccc4Cl)n3c2n1 [Example 43] | 2.17 h
21 | Cc1nc2ccc(C3CC3)nc2n2c(-c3cc(C(C)(C)O)ccc3F)nnc12 [Example 76] | 2.17 h
22 | Cc1ccc2nc(C)c3nnc(-c4cc(OC[C@@H](C)O)ccc4Cl)n3c2n1 [Example 35] | 2.17 h
23 | Cc1ccc2nc(C)c3nnc(-c4cc(O[C@@H]5CCOC5)ccc4Cl)n3c2n1 [Example 42] | 2.17 h

Row | SMILES | Half-life - t½
24 | Cc1nc2cccnc2n2c(-c3cc(CC(C)(C)O)ccc3Cl)nnc12 [Example 82] | 2.17 h
25 | Cc1nc2cccnc2n2c(-c3cc(C4(O)CCC4)ccc3Cl)nnc12 [Example 87] | 2.17 h
26 | Cc1nc2ccc(C3CC3)nc2n2c(-c3cc(OC4COCC4O)ccc3Cl)nnc12 (single isomer, unassigned) [Example 56b] | 1.03 h
27 | Cc1ccc(OCC(C)(C)O)cc1-c1nnc2c(C)nc3ccc(C(C)C)nc3n12 [Example 51] | 2.17 h
28 | Cc1nc2cccnc2n2c(-c3cc(C4(O)CCOC4)ccc3Cl)nnc12 (single isomer, unassigned) [Example 99] | 2.17 h
29 | Cc1nc2ccc(C3CC3)nc2n2c(-c3cc(C(C)(C)O)ccc3Cl)nnc12 [Example 85] | 2.17 h
30 | Cc1ccc(OC2COCC2O)cc1-c1nnc2c(C)nc3ccc(C4CC4)nc3n12 (racemic) [Example 57] | 2.17 h
31 | Cc1nc2cccnc2n2c(-c3cc(O)ccc3Cl)nnc12 [Example 1] | 2.17 h
32 | Cc1nc2ccc(C3CC3)nc2n2c(-c3cc(OCC(C)(C)O)ccc3F)nnc12 [Example 47] | 2.17 h
33 | Cc1nc2cccnc2n2c(-c3cc(OC[C@@H](C)O)ccc3Cl)nnc12 [Example 17] | 2.17 h
34 | Cc1nc2ccc(C(C)C)nc2n2c(-c3cc(OCC(C)(C)O)ccc3F)nnc12 [Example 52] | 2.17 h
35 | Cc1nc2cc(C(C)C)cnc2n2c(-c3cc(OCC(C)(C)O)ccc3Cl)nnc12 [Example 54] | 2.17 h
36 | Cc1ccc(C2(O)CCOCC2O)cc1-c1nnc2c(C)nc3ccc(C4CC4)nc3n12 (single isomer, unassigned) [Example 104a] | 2.17 h
37 | Cc1nc2ccc(C3CC3)nc2n2c(-c3cc(OC4COCC4O)ccc3Cl)nnc12 (single isomer, unassigned) [Example 58b] | 2.17 h
38 | Cc1nc2ccc(C3CC3)nc2n2c(-c3cc(OC4COCC4O)ccc3Cl)nnc12 (racemic) [Example 58a] | 2.17 h
39 | Cc1nc2cccnc2n2c(-c3cc(OCCCO)ccc3Cl)nnc12 [Example 13] | 2.17 h
40 | Cc1ccc2nc(C)c3nnc(-c4cc(OC5CCC(F)(F)CC5)ccc4Cl)n3c2n1 [Example 30] | 2.17 h
41 | Cc1ccc2nc(C)c3nnc(-c4cc(OC5CCOCC5)ccc4Cl)n3c2n1 [Example 32] | 2.17 h
42 | Cc1ccc2nc(C)c3nnc(-c4cc(OCC(C)(C)O)ccc4Cl)n3c2n1 [Example 46] | 2.17 h
43 | Cc1ccc(OC2COCC2O)cc1-c1nnc2c(C)nc3ccc(C4CC4)nc3n12 (single isomer, unassigned) [Example 57a] | 2.17 h
44 | Cc1ccc2nc(C)c3nnc(-c4cc(C(C)(C)O)ccc4Cl)n3c2n1 [Example 71] | 2.17 h
45 | Cc1ccc2nc(C)c3nnc(-c4cc(C(C)O)ccc4Cl)n3c2n1 (stereo not drawn) [Example 63] | 2.17 h

Same assay, conditions: human, pooled liver microsomes, pH 7.6, human liver microsomes, 1 μM test compound, 37° C.; read-out: Half-life - t½

Row | SMILES | half-life at 1 μM
46 | Cc1ccc(CC(C)(C)O)cc1-c1nnc2c(C)nc3ccc(C4CC4)nc3n12 [Example 81] | 0.433 h
47 | Cc1nc2ccc(C(F)(F)F)nc2n2c(-c3cc(C4(O)CCOCC4)ccc3Cl)nnc12 [Example 96] | 1.83 h
48 | Cc1nc2ccc(C3CC3)nc2n2c(-c3cc(C(C)(C)CO)ccc3F)nnc12 [Example 101] | 0.367 h
49 | Cc1nc2ccc(C(C)C)nc2n2c(-c3cc(C4(O)CCC4)ccc3F)nnc12 [Example 92] | 0.383 h
50 | Cc1ccc(O)cc1-c1nnc2c(C)nc3ccc(C4CC4)nc3n12 [Example 6] | 1.1 h
51 | Cc1nc2ccc(C3CC3)nc2n2c(-c3cc(CC(C)(C)O)ccc3Cl)nnc12 [Example 83] | 1.67 h
52 | Cc1ccc(OC2COCC2O)cc1-c1nnc2c(C)nc3ccc(C4CC4)nc3n12 (single isomer, unassigned) [Example 57b] | 1.55 h
53 | Cc1nc2ccc(C(C)C)nc2n2c(-c3cc(C(C)(C)O)ccc3Cl)nnc12 [Example 77] | 1.5 h
54 | Cc1nc2ccc(C3CC3)nc2n2c(-c3cc(O)ccc3Cl)nnc12 [Example 9] | 0.683 h
55 | Cc1nc2ccc(C3CC3)nc2n2c(-c3cc(CC(C)(C)O)ccc3F)nnc12 [Example 80] | 1.38 h
56 | Cc1nc2ccc(C3CC3)nc2n2c(-c3cc(OC4CCOCC4)ccc3Cl)nnc12 [Example 32a] | 0.6 h
57 | Cc1nc2ccc(C(F)(F)F)nc2n2c(-c3cc(O)ccc3Cl)nnc12 [Example 12] | 1.05 h
58 | Cc1nc2ccc(C3CC3)nc2n2c(-c3cc(OC4COCC4O)ccc3Cl)nnc12 (single isomer, unassigned) [Example 56a] | 1.83 h
59 | Cc1nc2ccc(C3CC3)nc2n2c(-c3cc(C4(O)CCC4)ccc3F)nnc12 [Example 84] | 0.65 h
60 | CCCC(O)c1ccc(Cl)c(-c2nnc3c(C)nc4ccc(C)nc4n23)c1 (stereo not drawn) [Example 61] | 1.08 h
61 | Cc1nc2ccc(C3CC3)nc2n2c(-c3cc(CCC(C)(C)O)ccc3Cl)nnc12 [Example 69] | 0.883 h
62 | Cc1nc2ccc(C3CC3)nc2n2c(-c3cc(O)ccc3F)nnc12 [Example 5] | 0.717 h
63 | Cc1nc2ccc(C3CC3)nc2n2c(-c3cc(OC4COCC4O)ccc3Cl)nnc12 (racemic) [Example 56] | 2 h
64 | Cc1nc2ccc(C3CC3)nc2n2c(-c3cc(CCC(C)(C)O)ccc3F)nnc12 [Example 66] | 0.95 h
65 | Cc1nc2ccc(C3CC3)nc2n2c(-c3cc(C4(O)CCC4)ccc3Cl)nnc12 [Example 88] | 0.883 h
66 | Cc1ccc(C(C)(C)O)cc1-c1nnc2c(C)nc3ccc(C(C)C)nc3n12 [Example 78] | 1.32 h
